One data set relates to C57Bl/6 mice. The data set is described as follows: Luciferase mRNA delivery in mice, IVIS chemiluminescence. The conditions noted are these: LNP formulation 2 (SM102: formulation 1); luciferase mRNA 0.25 mg/kg, tail vein, C57Bl/6 mice; whole body signal 6 h after LNP, 10 min after D-luciferin 150 mg/kg i.p. The data set is classed as in vivo. The protocol:
The animal experiments were reviewed and approved by the Ethics Committee of Zhejiang Medical College and the Ethics Committee of Zhejiang University of Technology. 6- to 8-week-old male C57Bl/6 mice were randomly grouped with 3 mice in each group. The mice in each group received a lipid nanoparticle coating mRNA expressing a luciferase via tail vein injection at a dose of 0.25 mg/kg mouse body weight (calculated by the mass of coated mRNA). […] The mRNA delivery effect of the lipid nanoparticle is quantitatively compared through a total chemiluminiscence quantity (Total Flux p/s) of a mouse whole body within unit time (shown in Table 5).
Table 13 and Table 14 show whole body chemiluminescent signals when LNPs (formulation 2) composed of the lipids in some examples deliver Flue mRNA in mice. The delivery dose of Flue mRNA was 0.25 mg/kg. 6 h after LNP injection, 150 mg/kg of D-luciferin was intraperitoneally injected into the mice, and then the whole body chemiluminescent signals were collected in the IVIS imaging system after 10 min. […]

Data set [1] in a line: Particle size detection of LNP (Brookhaven NanoBrook Omni, DLS). It is filed as physicochemical. The conditions noted are these: LNPs after coating mRNA (luciferase). The protocol: Step 1. Preparation of a lipid solution and a nucleic acid solution: unless otherwise specified, all aqueous solutions involved in examples were prepared from deionized water without nucleases. An ionizable lipid, a phospholipid (disaturated phosphatidylcholine (DSPC) or dioleoylphosphatidylethanolamine (DOPE)), cholesterol and a PEG lipid (DMG-PEG2000) were mixed in a molar ratio of 50/10/38.5/1.5 (containing DSPC, formulation 1) or 36.5/16/46.5/2.5 (containing DOPE, formulation 2) and dissolved into an ethanol solution. Meanwhile, a nucleic acid (a mass ratio of ionizable lipid/nucleic acid was 10/1) was dissolved into a citrate buffer solution of pH=3, so that a final volume ratio of the ethanol solution to the citrate solution was 1/3.
Step 2. Preparation of LNP by mixing the lipid solution with the nucleic acid solution: the lipid ethanol solution and the nucleic acid aqueous solution that were prepared in Step 1 were respectively put into a sterile syringe and placed in a Precision Nanosystem Ignite instrument, the extrusion flow speeds of the ethanol solution and the water phase solution were respectively set as 3 ml/min and 9 ml/min in instrument program settings. A microfluidic chip was inserted into the instrument and LNP preparation was initiated, and then a solution mixed by the chip was collected.
Step 2.1. Preparation of an LNP solution coating nucleic acid in a porous plate: a solution of an ionizable lipid, a phospholipid (DSPC or DOPE), cholesterol and a PEG lipid (DMG-PEG2000) in ethanol was added into each well of a 96-well deep plate, so that a molar ratio of four component lipids in each well was 50/10/38.5/1.5 (containing DSPC, formulation 1) or 36.5/16/46.5/2.5 (containing DOPE, formulation 2). Then, a citrate buffer solution (pH=3, the mass of nucleic acid added into each well was 1/10 that of the ionizable lipid in this well) that was three times as ethanol in volume and dissolved with a nucleic acid molecule was quickly added into the well plate through a multi-channel pipette or an automatic liquid dispensing system and rapidly mixed, so as to obtain the LNP solution coating nucleic acid.
Step 3. Purification of the LNP solution: the LNP solution collected in Step 2 or Step 2.1 was subjected to dialysis-concentration-filtration operations, so as to obtain a final LNP solution coating nucleic acid for subsequent testing.
The LNP solution coating nucleic acid obtained in Step 3 was diluted so that the final lipid concentration was between 0.01 mg/ml and 0.1 mg/ml. The diluted solution was added into a sample reservoir, and then subjected to particle size detection in a Brookhaven NanoBrook Omni instrument.

`CCCCCCCC/C=C\CCCCCCCCNC(=O)C(N(CCCN(CC)CC)C(=O)CCCCCCCCCCC)C(C)(C)C` (stereo not drawn) [Lipid 30]: in the data set on C57Bl/6 mice, the “Chemiluminescent signal (p/s)” value is 1.35E+08 p/s.

For the compound `CCCCCCCC/C=C\CCCCCCCCNC(=O)C(C1CCCCC1)N(CCN1CCN(C)CC1)C(=O)CCCCCCCCCCC` (stereo not drawn) [Lipid 60], in the data set with C57Bl/6 mice, the “Chemiluminescent signal (p/s)” value was determined as 4.10E+07 p/s.

As to `CCCCC/C=C\C/C=C\CCCCCCCC(=O)N(CCCN(C)C)C(C(=O)NCCCC(=O)OCCCCCCCC/C=C\CCCCCCCC)C(CC)CC` (stereo not drawn) [Lipid 108], in the data set on C57Bl/6 mice, the “Chemiluminescent signal (p/s)” value amounted to 4.23E+09 p/s.

On to `CCCCCCCC/C=C\CCCCCCCC(=O)OCCCNC(=O)C(C(CC)CC)N(CCCN(CC)CC)C(=O)CCCCCCCCCCC` (stereo not drawn) [Lipid 113], for which the “Chemiluminescent signal (p/s)” value with C57Bl/6 mice amounted to 3.39E+08 p/s.

Regarding `CCCCCCCCCCCCCCNC(=O)C(N(CCCN(CC)CC)C(=O)CCCCCCCCCCC)C(C)(C)C` (stereo not drawn) [Lipid 158], in the data set on C57Bl/6 mice, the “Chemiluminescent signal (p/s)” value was found to be 3.83E+08 p/s.

For `CCCCCCCCCCCCCCNC(=O)C(N(CCCN(CC)CC)C(=O)CCCCCCC/C=C\C[C@H](O)CCCCCC)C(C)(C)C` (stereo partly drawn) [Lipid 161], in data set [1], the PDI was 0.27 and the “Particle size” value was found to be 253.06 ± 4.58 nm·days.

Consider `CCCCCCCCC(=O)OCCCNC(=O)C(N(CCCN(C)C)C(=O)CCCCCCC/C=C\C[C@H](O)CCCCCC)C(C)(C)C` (stereo partly drawn) [Lipid 166], for which the “Chemiluminescent signal (p/s)” value in the data set with C57Bl/6 mice is 2.98E+09 p/s.

For the compound `CCCCC/C=C\C/C=C\CCCCCCCC(=O)N(CCCN(CC)CC)C(C(=O)NCCCOC(=O)CCCCCCCC)C(C)(C)C` (stereo not drawn) [Lipid 170], the “Chemiluminescent signal (p/s)” value in the data set with C57Bl/6 mice is given as 5.52E+08 p/s.

With `CCCCCCCCCCCC(=O)N(CCCN(C)C)C(C(=O)NCCCCCCCC(=O)OC(CCCCCCCC)CCCCCCCC)C(C)(C)C` (stereo not drawn) [Lipid 173], the “Chemiluminescent signal (p/s)” value with C57Bl/6 mice was determined as 5.48E+08 p/s.

For the compound `CCCCCCCCC(CCCCCCCC)OC(=O)CCCCCCCNC(=O)C(N(CCCN(C)C)C(=O)CCCCCCC/C=C\C[C@H](O)CCCCCC)C(C)(C)C` (stereo partly drawn) [Lipid 176], the “Chemiluminescent signal (p/s)” value in the data set with C57Bl/6 mice turned out to be 9.19E+08 p/s.

As for `CCCCCCCCCCCC(=O)N(CCCN(CC)CC)C(C(=O)NCCCCCCCC(=O)OC(CCCCCCCC)CCCCCCCC)C(C)(C)C` (stereo not drawn) [Lipid 178], the “Chemiluminescent signal (p/s)” value with C57Bl/6 mice turned out to be 9.50E+08 p/s.

Turning to `CCCCCCCCCCCCCC(=O)N(CCCN(CC)CC)C(C(=O)NCCCCCCCC(=O)OC(CCCCCCCC)CCCCCCCC)C(C)(C)C` (stereo not drawn) [Lipid 179], the “Chemiluminescent signal (p/s)” value in the data set with C57Bl/6 mice is 2.60E+09 p/s.

Regarding `CCCCCCCCC(CCCCCC)C(=O)OCCCCCCNC(=O)C(N(CCCN(CC)CC)C(=O)CCCCCCC/C=C\C[C@H](O)CCCCCC)C(C)(C)C` (stereo partly drawn) [Lipid 294], in data set [1], the PDI is on record as 0.26 and the “Particle size” value was found to be 150.04 ± 0.93 nm·days.

For the compound `CC/C=C\C/C=C\C/C=C\C/C=C\C/C=C\CCCC(=O)N(CCCN(CC)CC)C(C(=O)NCCCCCCOC(=O)C(CCCCCC)CCCCCCCC)C(C)(C)C` (stereo not drawn) [Lipid 295], in data set [1], the PDI was 0.16 and the “Particle size” value came to 162.45 ± 2.28 nm·days.

With `CCCCCCCCCCCCCC(=O)N(CCCN(C)C)C(C(=S)NCCCCCCCC(=O)OC(CCCCCCCC)CCCCCCCC)C(C)(C)C` (stereo not drawn) [Lipid 317], in data set [1], the PDI is recorded as 0.23 and the “Particle size” value came to 162.23 ± 0.89 nm·days.

With `CCCCCCCC/C=C\CCCCCCCCNC(=O)C(N(CCCN(C)C)C(=O)NCCCCCCCCCCCC)C(C)(C)C` (stereo not drawn) [Lipid 326], in data set [1], the PDI is 0.18 and the “Particle size” value turned out to be 111.42 ± 4.09 nm·days.

For the compound `CCCCCCCC/C=C\CCCCCCCCNC(=O)C(N(CCCN(C)C)C(=O)OCCCCCCCCCCCC)C(C)(C)C` (stereo not drawn) [Lipid 327], in data set [1], the PDI is recorded as 0.17 and the “Particle size” value was 104.99 ± 1.21 nm·days.

As for `CCCCCCCCC(CCCCCC)COC(=O)CCCCCCC(=O)N(CCCN(C)C)C(C(=O)NCCCCCCOC(=O)C(CCCCCC)CCCCCCCC)C(C)(C)C` (stereo not drawn) [Lipid 436], in data set [1], the PDI is 0.18 and the “Particle size” value worked out at 92.2 ± 0.47 nm·days.

Consider `CCCCC/C=C\C/C=C\CCCCCCCC(=O)N(CCCN(C)C)C(C(=O)NCCCCCCCC(=O)OC(CCCCCCCC)CCCCCCCC)C1CC1` (stereo not drawn) [Lipid 936], for which, in data set [1], the PDI amounted to 0.19 and the “Particle size” value amounted to 160.5 ± 2.71 nm·days.

The values above are taken from patent EP4644377A1, “LIPID COMPOUND FOR GENE DELIVERY AND LIPID NANOPARTICLE COMPRISING SAME” (NANJING CYBERNAX BIOMEDICAL TECHNOLOGY CO., LTD., priority 2022, dated 2024).
